Patent publication US20030176390A1, “Methods of treating insulin resistance syndrome and diabetes” (priority 2001, published 2003)
pEC50: −log10 of the molar value.

Test system: rat adipocytes
Assay: In vitro lipolysis assay (antilipolytic activity in rat adipocytes)
Type: cell-based
Details: Rattus norvegicus, Adipocyte, 1 h; norepinephrine-stimulated lipolysis, glycerol assayed, 60 min; read-out: Lipo ec50
Description: Determination of Antilipolytic Activity in Rat Adipocytes
Isolation of Adipocytes from Epididymal Fat Pads
Adipose tissue is removed from anesthetized rats and rinsed twice in incubation medium (2.09 g sodium bicarbonate and 0.04 g EDTA, disodium salt, in 1 L Krebs buffer). Each rat (300-350 g) yields approximately 4 mL of adipose tissue. The adipose tissue (35 mL) is cut into small pieces with scissors and washed with incubation medium (50 mL). The mixture is poured into the barrel of a 50 mL syringe to which is attached a short piece of clamped tubing instead of a needle. The aqueous phase is allowed to drain. A second wash with incubation medium is passed through the syringe. The tissue is added to 50 mL of collagenase solution (collagenase (90 mg), bovine serum albumin (BSA) (500 mg), and 0.1 M calcium chloride solution (1 mL), in incubation medium (50 mL)) in a 1 L bottle. The mixture is shaken in an environmental at 37° C. for about 60 minutes under an atmosphere of 95% oxygen/5% carbon dioxide to effect digestion of the tissue. The dispersed cells are poured through 2 layers of cheese cloth into a 100 mL plastic beaker. The undigested clumps in the cloth are rinsed once with incubation medium (20 mL). The cells in the beaker are centrifuged in 2 plastic tubes for 30 seconds at room temperature at 300 rpm. The aqueous phase is aspirated from beneath the loosely packed layer of floating fat cells and discarded. The adipocytes are gently poured into a 250 mL plastic beaker containing 100 mL of rinse solution (1 g BSA per 100 mL incubation medium). After gentle stirring the centrifugation step is repeated. Another wash with rinse solution follows. The cells are pooled and their volume is estimated with a graduated cylinder. The adipocytes are diluted in twice their volume of assay buffer (incubation medium (120 mL), BSA (1.2 g), pyruvic acid (13 mg)).
The assay is performed in 20 mL plastic scintillation vials and the total assay volume is 4.2 mL. Assay buffer (2.5 mL), diluted adipocytes (1.5 mL), and a solution of the compound to be tested (12.3 μL) adenosine agonist (12.3 μl; varying concentration) is incubated in the environmental shaker for 15 minutes, then the reaction is started with norepinephrine solution (41.2 μL) (10 nM, in a carrier solution containing water (100 mL), BSA (4 mg), and 0.1 M EDTA (20 μL))and adenosine deaminase (1 μg/mL, 41.2 μl). After sixty minutes in the shaker the reaction is terminated by putting the vials on ice. […] The hard lipid layer is removed by aspiration and the aqueous layer is assayed for glycerol (400 μl of sample). The positive control is done in the absence of any adenosine agonist, substituting water in place of the solution to be tested.

**Q.** With `OC[C@H]1O[C@@H](n2cnc3c(N[C@H]4CCN(c5cc(Cl)ncn5)C4)ncnc32)[C@H](O)[C@@H]1O` [Example 21, (2R,3R,4S,5R)-5-hydroxymethyl-2-[6-[1-(6-chloropyrimidin-4-yl)pyrrolidin-3(S)-ylamino]-purin-9-yl]-tetrahydrofuran-3,4-diol] as the molecule, how does the pEC50 read?
**A.** The pEC50 was 8.61.

**Q.** With `CC(C)OC[C@H]1C[C@@H](n2cnc3c(N[C@H]4CCN(c5cc(C(F)(F)F)ccn5)C4)ncnc32)[C@H](O)[C@@H]1O` [Example 50, (1R,2S,3R,5R)-5-isopropoxymethyl-3-[6-[1-(4-trifluoromethylpyridin2-yl)pyrrolidin-3(S)-ylamino]-purin-9-yl]cyclopentane-1,2-diol] as the molecule, how does the pEC50 read?
**A.** Its pEC50 is 6.44.

Same assay, conditions: norepinephrine-stimulated lipolysis, glycerol assayed, 60 min; read-out: Lipo ec50

**Q.** With `O=C1C[C@H](Nc2ncnc3c2ncn3[C@@H]2C[C@H](CO)[C@@H](O)[C@H]2O)CN1Cc1ccccc1` [Example 6, 4(S)-1-benzyl-4-[9-((1R,2S,3R,5R)-1,2-dihydroxy-5-hydroxymethylcyclopent-3-yl)-9H-purin-6-ylamino]pyrrolidin-2-one] as the molecule, how does the pEC50 read?
**A.** Its pEC50 is 6.57.

Test system: not given
Assay: not given
Details: not given

**Q.** Which melting point does the source give for `COC[C@H]1C[C@@H](n2cnc3c(N[C@H]4CCN(Cc5ccccc5)C4)ncnc32)[C@H](O)[C@@H]1O` [Example 60, (1R,2S,3R,5R)-3-[6-(1-benzyl-pyrrolidin-3(S)-ylamino)purin-9-yl]-5-methoxymethylcyclopentane-1,2-diol] here?
**A.** Its melting point is 95 to 96 °C.

**Q.** Which melting point does the source give for `OC[C@H]1C[C@@H](n2cnc3c(N[C@@H]4CCNC4)ncnc32)[C@H](O)[C@@H]1O` [Example 28, (1R,2S,3R,5R)-5-hydroxymethyl-3-[6-((3R)-pyrrolidin-3-ylamino)-purin-9-yl]cyclopentane-1,2-diol] here?
**A.** The melting point was 166 °C (dec.).

**Q.** For `CC[C@@H](C)NC(=O)[C@H]1C[C@@H](n2cnc3c(N[C@H]4CCN(c5ccc(C(F)(F)F)cn5)C4)ncnc32)[C@H](O)[C@@H]1O` [Example 62, (1S,2R,3S,4R)-2,3-dihydroxy-4-{6-[1-(5-trifluoromethyl-pyridin-2-yl)-pyrrolidin-3(S)-ylamino]-purin-9-yl}-cyclopentanecarboxylic acid-1(R)-methylpropylamide], which melting point is on record?
**A.** Its melting point is 206 to 212 °C (dec.).

**Q.** Which melting point does the source give for `OC[C@H]1O[C@@H](n2cnc3c(NC4CCCN(c5ccc(C(F)(F)F)cn5)C4)ncnc32)[C@H](O)[C@@H]1O` (stereo partly drawn) [Example 13, (2R,3R,4S,5R)-5-hydroxymethyl-2-[6-(5′-trifluoromethyl-3,4,5,6-tetrahydro-2H-[1,2′]-bipyridinyl-3-ylamino)-purin-9-yl]tetrahydrofuran-3,4-diol] here?
**A.** The melting point was 113 to 116 °C.

**Q.** With `OC[C@H]1C[C@@H](n2cnc3c(N[C@H]4CCN(c5cc(Cl)ncn5)C4)ncnc32)[C@H](O)[C@@H]1O` [Example 45, (1R,2S,3R,5R)-3-[6-[1-(6-chloropyrimidin-4-yl)pyrrolidin-3(S)-ylamino]-purin-9-yl]-5-hydroxymethylcyclopentane-1,2-diol] as the molecule, how does the melting point read?
**A.** The melting point was 180 to 182 °C.

**Q.** For `OC[C@H]1O[C@@H](n2cnc3c(N[C@@H]4CCN(c5ccc(C(F)(F)F)cn5)C4)ncnc32)[C@H](O)[C@@H]1O` (hydrate or solvate) [Example 4, (2R,3R,4S,5R)-5-hydroxymethyl-2-[6-[1-(5-trifluoromethylpyridin-2-yl)-pyrrolidin-3(R)-ylamino]purin-9-yl]tetrahydrofuran-3,4-diol], which melting point is on record?
**A.** Its melting point is 166 to 170 °C.

**Q.** Which melting point does the source give for `OC[C@H]1O[C@@H](n2cnc3c(N[C@H]4CCN(c5cc(C(F)(F)F)ccn5)C4)ncnc32)[C@H](O)[C@@H]1O` [Example 10, (2R,3R,4S,5R)-5-hydroxymethyl-2-[6-[1-(4-trifluoromethylpyridin-2-yl)-pyrrolidin-3(S)-ylamino]-purin-9-yl]tetrahydrofuran-3,4-diol] here?
**A.** Its melting point is 187 to 190 °C.

**Q.** For `Cc1ccc(N2CC[C@H](Nc3ncnc4c3ncn4[C@@H]3O[C@H](CO)[C@@H](O)[C@H]3O)C2)nc1` [Example 17, (2R,3R,4S,5R)-5-hydroxymethyl-2-[6-[1-(5-methylpyridin-2-yl)-pyrrolidin-3(S)-ylamino]-purin-9-yl]tetrahydrofuran-3,4-diol], which melting point is on record?
**A.** The melting point was 164 to 166 °C.

**Q.** For `CC(C)OC[C@H]1C[C@@H](n2cnc3c(N[C@H]4CCN(c5ccc(C(F)(F)F)cn5)C4)ncnc32)[C@H](O)[C@@H]1O` [Example 49, (1R,2S,3R,5R)-5-isopropoxymethyl-3-[6-[1-(5-trifluoromethylpyridin2-yl)pyrrolidin-3(S)-ylamino]-purin-9-yl]cyclopentane-1,2-diol], which melting point is on record?
**A.** The melting point was 157 to 158 °C.

**Q.** For `COC[C@H]1O[C@@H](n2cnc3c(N[C@H]4CCN(c5ccc(C(F)(F)F)cn5)C4)ncnc32)[C@H](O)[C@@H]1O` [Example 23, (2R,3R,4S,5R) -5-methoxymethyl-2-[6-[1-(5-trifluoromethylpyridin-2-yl)-pyrrolidin-3(S)-ylamino]-purin-9-yl]tetrahydrofuran-3,4-diol], which melting point is on record?
**A.** Its melting point is 198 to 200 °C.

**Q.** Which melting point does the source give for `OC[C@H]1O[C@@H](n2cnc3c(N[C@H]4CCN(c5ccc(Cl)cc5)C4)ncnc32)[C@H](O)[C@@H]1O` [Example 16, (2R,3R,4S,5R)-5-hydroxymethyl-2-[6-[1-(4-chlorophenyl)-pyrrolidin-3(S)-ylamino]-purin-9-yl]-tetrahydrofuran-3,4-diol] here?
**A.** Its melting point is 121 to 124 °C.

**Q.** With `CSc1ccc(N2CC[C@H](Nc3ncnc4c3ncn4[C@@H]3O[C@H](CO)[C@@H](O)[C@H]3O)C2)nc1` [Example 19, (2R,3R,4S,5R)-5-hydroxymethyl-2-[6-[1-(5-methylmercaptopyridin-2-yl)-pyrrolidin-3(S)-ylamino]-purin-9-yl]tetrahydrofuran-3,4-diol] as the molecule, how does the melting point read?
**A.** Its melting point is 231 to 233 °C.

**Q.** For `O=[N+]([O-])c1ccc(N2CCC(Nc3ncnc4c3ncn4[C@@H]3C[C@H](CO)[C@@H](O)[C@H]3O)CC2)cc1` [Example 25, (1R,2S,3R,5R)-5-hydroxymethyl-3-[6-[1-(4-nitrophenyl)piperidin-4-ylamino]-purin-9-yl]cyclopentane-1,2-diol], which melting point is on record?
**A.** Its melting point is 126 to 128 °C.

**Q.** With `O=[N+]([O-])c1ccc(N2CC[C@H](Nc3ncnc4c3ncn4[C@@H]3O[C@H](CO)[C@@H](O)[C@H]3O)C2)cc1` [Example 12, (2R,3R,4S,5R)-5-hydroxymethyl-2-(6-(1-(4-nitrophenyl)-pyrrolidin-3(S)-ylamino)-purin-9-yl) tetrahydrofuran-3,4-diol] as the molecule, how does the melting point read?
**A.** Its melting point is 230 to 232 °C.

**Q.** With `OC[C@H]1C[C@@H](n2cnc3c(N[C@H]4CCN(Cc5ccccc5)C4)ncnc32)[C@H](O)[C@@H]1O` [Example 59, (1R,2S,3R,5R)-3-[6-(1-benzyl-pyrrolidin-3(S)-ylamino)purin-9-yl]-5-hydroxymethylcyclopentane-1,2-diol] as the molecule, how does the melting point read?
**A.** The melting point was 100 to 102 °C.

**Q.** Which melting point does the source give for `COC[C@H]1C[C@@H](n2cnc3c(N[C@H]4CCN(c5ccccc5)C4)ncnc32)[C@H](O)[C@@H]1O` [Example 58, (1R,2S,3R,5R)-5-methoxymethyl-3-[6-[1-phenylpyrrolidin-3-(S)-ylamino]-purin-9-yl]cyclopentan-1,2-diol] here?
**A.** Its melting point is 106 °C.

**Q.** With `COC[C@H]1C[C@@H](n2cnc3c(N[C@H]4CCN(c5cc(OC)ncn5)C4)ncnc32)[C@H](O)[C@@H]1O` [Example 48, (1R,2S,3R,5R)-5-methoxymethyl-3-[6-[1-(6-methoxypyrimidin-4-yl)pyrrolidin-3(S)-ylamino]-purin-9-yl]cyclopentane-1,2-diol] as the molecule, how does the melting point read?
**A.** The melting point was 118 to 120 °C.

**Q.** With `OC[C@H]1O[C@@H](n2cnc3c(N[C@H]4CCN(c5ccccn5)C4)ncnc32)[C@H](O)[C@@H]1O` [Example 15, (2R,3R,4S,5R)-5-hydroxymethyl-2-[6-(1-pyridin-2-ylpyrrolidin-3(S)-ylamino]-purin-9-yl]tetrahydrofuran-3,4-diol] as the molecule, how does the melting point read?
**A.** The melting point was 193 to 195 °C.

**Q.** With `OC[C@H]1C[C@@H](n2cnc3c(N[C@H]4CCN(c5cnc6ccccc6c5)C4)ncnc32)[C@H](O)[C@@H]1O` [Example 36, (1R,2S,3R,5R)-5-hydroxymethyl-3-[6-[1-(quinolin-3-yl)pyrrolidin-3(S)-ylamino]-purin-9-yl]cyclopentane-1,2-diol] as the molecule, how does the melting point read?
**A.** The melting point was 135 to 138 °C.

**Q.** For `OC[C@H]1O[C@@H](n2cnc3c(N[C@H]4CCN(c5ccc(Cl)cn5)C4)ncnc32)[C@H](O)[C@@H]1O` [Example 8, (2R,3R,4S,5R)-5-hydroxymethyl-2-[6-[1-(5-chloropyridin-2-yl)-pyrrolidin-3(S)-ylamino]-purin-9-yl]-tetrahydrofuran-3,4-diol], which melting point is on record?
**A.** Its melting point is 154 to 156 °C.
